Literature values in patent US8097602B1, “Method of treating body insect infestation” (Host Pharmaceuticals, LLC, priority 2008, dated 2012).

Details: at 20° C.

Substance	Surface Tension (dynes/cm)
n-fluoroalkanes	25.9^1 dynes/cm
n-alkanes	37.8^1 dynes/cm
